Test results: the NIST ThermoML archive (doi:10.1016/j.jct.2018.09.036)
Numbers after ± are expanded uncertainties.

Test: mn = molality of the nth substance listed, in mol/kg
Conditions: 298.15 K, 99.7 kPa, Liquid; for viscosity: Falling or rolling sphere viscometry; for mass density: Vibrating tube method

Structure (SMILES)	viscosity (m2 = 0) [mPa·s]	viscosity (m1 = 0.15) [mPa·s]	viscosity (m1 = 0.3) [mPa·s]	viscosity (m1 = 0.45) [mPa·s]	viscosity (m1 = 0.6) [mPa·s]	viscosity (m1 = 0.7) [mPa·s]	viscosity (m1 = 0.8) [mPa·s]	mass density (m1 = 0.15) [kg/m3]	mass density (m1 = 0.3) [kg/m3]	mass density (m1 = 0.45) [kg/m3]	mass density (m1 = 0.6) [kg/m3]	mass density (m1 = 0.7) [kg/m3]	mass density (m1 = 0.8) [kg/m3]	also measured
O [water] + CCCCCCn1cc[n+](C)c1.[Br-]	0.89 ± 0.019													
CCCCCCn1cc[n+](C)c1.[Br-] [3-hexyl-1-methyl-1H-imidazolium bromide] + O		0.947 ± 0.02	1.018 ± 0.022	1.093 ± 0.024	1.169 ± 0.026	1.221 ± 0.027	1.273 ± 0.027	1003.87 ± 0.33	1010.37 ± 0.4	1016.58 ± 0.47	1022.49 ± 0.56	1026.26 ± 0.6	1029.91 ± 0.35	
CCCCn1cc[n+](C)c1.[Br-] [1-butyl-3-methylimidazolium bromide] + O		0.922 ± 0.02	0.974 ± 0.021	1.028 ± 0.022	1.084 ± 0.024	1.121 ± 0.025	1.164 ± 0.025	1004.39 ± 0.34	1011.43 ± 0.41	1018.2 ± 0.5	1024.73 ± 0.6	1028.96 ± 0.66	1033.08 ± 0.35	
CCn1cc[n+](C)c1.[Br-] [1-ethyl-3-methylimidazolium bromide] + O		0.899 ± 0.019	0.93 ± 0.02	0.961 ± 0.021	0.992 ± 0.021	1.013 ± 0.022	1.036 ± 0.022	1004.96 ± 0.34	1012.56 ± 0.43	1019.92 ± 0.53	1027.01 ± 0.64	1031.63 ± 0.71	1036.11 ± 0.35	
O [water] + CCCCn1cc[n+](C)c1.[Br-]	0.89 ± 0.019													
NCC(=O)O [2-aminoacetic acid] + O		0.908 ± 0.019	0.927 ± 0.02					1001.78 ± 0.32	1006.42 ± 0.35					viscosity (m1 = 0.1): 0.902 ± 0.019 mPa·s; viscosity (m1 = 0.2): 0.914 ± 0.019 mPa·s; viscosity (m1 = 0.25): 0.92 ± 0.02 mPa·s; viscosity (m1 = 0.35): 0.934 ± 0.02 mPa·s; mass density (m1 = 0.1): 1000.22 ± 0.31 kg/m3; mass density (m1 = 0.2): 1003.34 ± 0.33 kg/m3; mass density (m1 = 0.25): 1004.88 ± 0.34 kg/m3; mass density (m1 = 0.35): 1007.94 ± 0.31 kg/m3
O [water] + NCC(=O)O	0.89 ± 0.019													
O [water] + CCn1cc[n+](C)c1.[Br-]	0.89 ± 0.019													
